Molecular target: T1, human MRP4 (Homo sapiens, UniProt O15439)
T1 construct: purchased GenoMembrane Co., Ltd. (Kanagawa, Japan); host or cells: Sf9
T1 sequence (O15439 1-1325): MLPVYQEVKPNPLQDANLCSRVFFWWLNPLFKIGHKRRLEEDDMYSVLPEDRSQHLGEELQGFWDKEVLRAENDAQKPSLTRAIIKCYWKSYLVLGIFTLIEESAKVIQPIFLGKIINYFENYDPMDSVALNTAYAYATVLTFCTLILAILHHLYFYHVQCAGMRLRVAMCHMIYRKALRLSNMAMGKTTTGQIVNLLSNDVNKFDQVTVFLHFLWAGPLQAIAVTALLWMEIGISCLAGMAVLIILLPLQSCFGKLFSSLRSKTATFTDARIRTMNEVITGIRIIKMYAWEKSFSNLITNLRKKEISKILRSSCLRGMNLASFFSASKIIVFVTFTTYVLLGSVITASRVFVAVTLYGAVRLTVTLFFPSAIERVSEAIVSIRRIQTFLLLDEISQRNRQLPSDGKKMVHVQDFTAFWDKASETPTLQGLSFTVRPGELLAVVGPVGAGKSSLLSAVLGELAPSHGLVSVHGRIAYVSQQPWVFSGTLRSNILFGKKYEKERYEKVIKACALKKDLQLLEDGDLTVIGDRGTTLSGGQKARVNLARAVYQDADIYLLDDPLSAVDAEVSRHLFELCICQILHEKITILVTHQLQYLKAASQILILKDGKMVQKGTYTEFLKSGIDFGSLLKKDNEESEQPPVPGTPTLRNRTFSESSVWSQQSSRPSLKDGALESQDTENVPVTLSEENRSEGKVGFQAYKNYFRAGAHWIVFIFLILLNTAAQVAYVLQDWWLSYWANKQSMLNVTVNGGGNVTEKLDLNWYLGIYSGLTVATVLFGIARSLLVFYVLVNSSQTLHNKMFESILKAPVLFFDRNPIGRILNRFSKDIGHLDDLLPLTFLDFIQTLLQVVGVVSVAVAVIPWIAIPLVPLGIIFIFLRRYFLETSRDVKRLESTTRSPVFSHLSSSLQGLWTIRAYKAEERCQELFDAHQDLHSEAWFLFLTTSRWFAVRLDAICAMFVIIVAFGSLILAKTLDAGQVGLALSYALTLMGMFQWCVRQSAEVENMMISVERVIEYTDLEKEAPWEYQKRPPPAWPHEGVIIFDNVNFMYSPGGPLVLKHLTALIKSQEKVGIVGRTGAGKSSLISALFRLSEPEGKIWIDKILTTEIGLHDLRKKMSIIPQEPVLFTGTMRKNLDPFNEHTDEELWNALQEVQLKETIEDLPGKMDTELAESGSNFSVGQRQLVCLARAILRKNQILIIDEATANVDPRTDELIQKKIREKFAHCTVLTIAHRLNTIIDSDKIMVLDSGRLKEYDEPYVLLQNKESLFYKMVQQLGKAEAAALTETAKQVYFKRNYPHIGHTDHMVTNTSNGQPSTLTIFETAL
Test: [14C]fluciclovine uptake by MRP4-expressing inside-out vesicles
Format: in vitro ADME
Experimental: For ABC transporters, experimental kits containing Sf9-derived vesicles with high expression levels of human P-gp, MRP4, BCRP, and each ABC transporter (including buffer, ATP/AMP solution, and glutathione) were purchased from GenoMembrane Co., Ltd. (Kanagawa, Japan).
Vesicular transport assays were carried out according to the manufacturer’s protocol. […] The reaction was started by suspending 50 μg of vesicles (10 μL) in 40 μL of the reaction buffer. After incubation for an appropriate period of time, the reaction was stopped by the addition of ice-cold stop buffer (40 mM MOPS-Tris and 70 mM KCl; pH 7.0), after which the solution was filtered through a 0.45 μm HA filter (Millipore Corp., Billerica, MA, USA) using suction, and was washed twice in 5 mL of ice-cold stop buffer. The radioactivity of the filter was measured with a Tri-Carb 2910TR liquid scintillation counter (PerkinElmer) using Ultima Gold (PerkinElmer). The amount of tracer uptake was normalized to the membrane protein amount described in the product information sheets.

For `N[14C]1(C(=O)O)CC(F)C1` (stereo not drawn) [[^14C]fluciclovine, trans-1-amino-3-fluoro[1-^14C]cyclobutanecarboxylic acid], the “uptake compared with control vesicles” value was “no significant difference”.

Source: publication PMC5085761 (International Journal of Molecular Sciences, 2016)
